This assay relates to Holstein calves. Nature of the assay: Test on anion regulating activity (urinary pH). The assay is classed as in vivo. To be noted: Table 3 and FIG. 1 summary. The procedure:
If a DCAD value is positive, the urinary pH is 7-8.5. It is also known that if an anion regulator is added, and as a result the feed is changed to show a negative DCAD value, the urinary pH of animals to which such feed has been fed is reduced and will show a value of 6.5-5.5 when the anion regulator has been added in an appropriate amount. […] (1995), Sep., p.634 (Japanese version).
Experiments were conducted using six(6) Holstein calves with a body weight of approximately 200 kg. They were divided into three groups, two calves in a group. The groups were each fed with one of the following three(3) types of experimental feeds. Feed consisting of […] concentrated feed (“Beef-fast”, ex Itochu Feed Co.), 550 g of timothy-hay and 550 g of alfalfa hay cubes was fed, twice a day, at 9 and 16 o'clock, for one week before the start of the experiment, for adaptation.
These three(3) types of mixed feeds were separately supplied to each group at 9 and 16 o'clock on the same day and at 9 o'clock on the next day. After 10 minutes, each mixed feed was removed, and subsequently, a mixture of 900 g of concentrated feed, 500 g of timothy-hay and 550 g of alfalfa hay cubes, was supplied instead.
In the table and figure, for example, terms Lys HCl 1 and Lys HCl 2 indicate respectively the two calves in the first group which was fed with Lys HCl (Lys HCl-feeded group).

As for `Cl.N=C(N)NCCC[C@H](N)C(=O)O` [L-arginine hydrochloride, L-arginine monohydrochloride], the “Effectiveness as anion regulator” value is given as “effective as anion regulators” and the “Reduction of urinary pH compared with NH4Cl” value was “reduce urinary pH better than NH4Cl”.

For the molecule `Cl.NCCCC[C@H](N)C(=O)O` [L-lysine hydrochloride, L-lysine monohydrochloride], the “Effectiveness as anion regulator” value is given as “effective as anion regulators” and the “Reduction of urinary pH compared with NH4Cl” value is given as “reduce urinary pH better than NH4Cl”.

The values above are taken from US20020127268A1, “Anion regulator for ruminants” (AJINOMOTO CO., INC., priority 1997, published 2002).
